In PubChem BioAssay AID248 (DTP/NCI, 2004):
Values joined by “and” are separate entries in the source; they are usually repeats but may differ in a detail not shown here. Equal values may be shown once. Toxic doses and inconclusive results are not listed. Cut-off read from the data, not from the text of the source: active = T/C of 150% or more; inactive = T/C below 125%.

Tested on: L1210 leukemia ip in BDF1 mice, survival T/C
Assay: NCI In Vivo Anticancer Drug Screen. Data for tumor model L1210 Leukemia (intraperitoneal) in B6D2F1 (BDF1) mice
Conditions: endpoint: mean survival time, higher = longer survival
In short: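 Transplantable tumor model; survival measured in treated vs vehicle control mice. Value = treated/control.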

[1] = dose: 12.5 mg/kg/injection, schedule: Q01DX015 (ip), vehicle: methylcellulose (MC)
[2] = dose: 100.0 mg/kg/injection, schedule: Q04DX003 (ip), vehicle: saline with Tween-80
[3] = dose: 200.0 mg/kg/injection, schedule: Q04DX003 (ip), vehicle: saline with Tween-80
[4] = dose: 400.0 mg/kg/injection, schedule: Q04DX003 (ip), vehicle: saline with Tween-80
[5] = dose: 100.0 mg/kg/injection, schedule: Q01DX001 (ip), vehicle: saline
[6] = dose: 200.0 mg/kg/injection, schedule: Q01DX001 (ip), vehicle: saline
[7] = dose: 400.0 mg/kg/injection, schedule: Q01DX001 (ip), vehicle: saline
[8] = dose: 100.0 mg/kg/injection, schedule: Q01DX009 (ip), vehicle: Klucel (hydroxypropylcellulose) (HPC)
[9] = dose: 200.0 mg/kg/injection, schedule: Q01DX009 (ip), vehicle: Klucel (hydroxypropylcellulose) (HPC)
[10] = dose: 400.0 mg/kg/injection, schedule: Q01DX009 (ip), vehicle: Klucel (hydroxypropylcellulose) (HPC)
[11] = dose: 100.0 mg/kg/injection, schedule: Q04DX003 (ip), vehicle: saline
[12] = dose: 200.0 mg/kg/injection, schedule: Q04DX003 (ip), vehicle: saline
[13] = dose: 400.0 mg/kg/injection, schedule: Q04DX003 (ip), vehicle: saline
[14] = dose: 100.0 mg/kg/injection, schedule: Q04DX003 (ip), vehicle: Klucel (hydroxypropylcellulose) (HPC)

Measured: T/C

COc1ccc2c(c1)CSC(c1ccccc1)=C2
inactive: dose: 25.0 mg/kg/injection, schedule: Q04DX002 (ip), vehicle: Klucel (hydroxypropylcellulose) (HPC) 98 % of control | dose: 50.0 mg/kg/injection, schedule: Q04DX002 (ip), vehicle: Klucel (hydroxypropylcellulose) (HPC) 120 % of control | dose: 100.0 mg/kg/injection, schedule: Q04DX002 (ip), vehicle: Klucel (hydroxypropylcellulose) (HPC) 98 % of control

CCN=C(c1ccc(NC(=O)c2ccc(C(=O)Nc3ccc(C(=NCC)N(CC)C(=O)NC)cc3)cc2)cc1)N(CC)C(=O)NC
inactive: dose: 6.25 mg/kg/injection, schedule: Q01DX015 (ip), vehicle: methylcellulose (MC) 93 % of control | [1] 100 % of control

OCCNc1nc2ccccc2c2ccccc12
inactive: dose: 75.0 mg/kg/injection, schedule: Q01DX001 (ip), vehicle: carboxymethylcellulose (CMC) 98 % of control | dose: 150.0 mg/kg/injection, schedule: Q01DX001 (ip), vehicle: carboxymethylcellulose (CMC) 112 % of control

Cc1ccc(S(=O)(=O)OCC2CO2)cc1 (configuration not stated)
inactive: dose: 100.0 mg/kg/injection, schedule: Q01DX009 (ip), vehicle: acetone 92 % of control | dose: 100.0 mg/kg/injection, schedule: Q04DX003 (ip), vehicle: acetone 92 % of control | dose: 200.0 mg/kg/injection, schedule: Q04DX003 (ip), vehicle: acetone 95 % of control | dose: 400.0 mg/kg/injection, schedule: Q01DX009 (ip), vehicle: acetone 87 % of control | dose: 400.0 mg/kg/injection, schedule: Q04DX003 (ip), vehicle: acetone 92 % of control

CC(C)NC(=O)Nc1cccc(OC(=O)NC(C)(C)C)c1
inactive: [2] 88 % of control | [3] 91 % of control | [4] 89 % of control

Nc1nc2ncnc(N)c2nc1-c1ccc(N(CCCl)CCCl)cc1
inactive: [5] 98 % of control | [6] 95 % of control | [7] 102 % of control

COC(OC)c1[nH]c(=S)[nH]c(=O)c1Cc1cc([N+](=O)[O-])ccc1O
inactive: dose: 100.0 mg/kg/injection, schedule: Q01DX009 (ip), vehicle: saline with Tween-80 100 % of control | [2] 101 % of control | dose: 200.0 mg/kg/injection, schedule: Q01DX009 (ip), vehicle: saline with Tween-80 91 % of control | [3] 97 % of control | dose: 400.0 mg/kg/injection, schedule: Q01DX009 (ip), vehicle: saline with Tween-80 93 % of control | [4] 94 % of control

O=[N+]([O-])c1cccc(/C=C/C=C/c2c(Cl)cccc2Cl)c1
inactive: [5] 91 % of control | [6] 94 % of control | [7] 100 % of control

CCCCC/C=C(\CCCCCC)c1ccccc1
inactive: dose: 100.0 mg/kg/injection, schedule: Q01DX001 (ip), vehicle: saline with Tween-80 98 % of control | dose: 200.0 mg/kg/injection, schedule: Q01DX001 (ip), vehicle: saline with Tween-80 95 % of control | dose: 400.0 mg/kg/injection, schedule: Q01DX001 (ip), vehicle: saline with Tween-80 90 % of control

CCN=C(c1ccc(NC(=O)c2ccc(C(=O)Nc3ccc(C(=NCC)N(CC)C(=O)NCC(=O)OCC)cc3)cc2)cc1)N(CC)C(=O)NCC(=O)OCC
inactive: dose: 3.12 mg/kg/injection, schedule: Q01DX015 (ip), vehicle: methylcellulose (MC) 109 % of control | dose: 25.0 mg/kg/injection, schedule: Q01DX015 (ip), vehicle: methylcellulose (MC) 101 % of control
active: [1] 155 % of control

O=[N+]([O-])c1ccc2cnn(CCCl)c2c1
inactive: dose: 100.0 mg/kg/injection, schedule: Q01DX001 (ip), vehicle: carboxymethylcellulose (CMC) 94 % of control | dose: 200.0 mg/kg/injection, schedule: Q01DX001 (ip), vehicle: carboxymethylcellulose (CMC) 100 % of control | dose: 400.0 mg/kg/injection, schedule: Q01DX001 (ip), vehicle: carboxymethylcellulose (CMC) 108 % of control

O=P(O)(O)OCC1OC(n2cnc3c(Cl)ncnc32)C(O)C1O (configuration not stated)
inactive: dose: 50.0 mg/kg/injection, schedule: Q04DX002 (ip), vehicle: saline 115 % of control | dose: 100.0 mg/kg/injection, schedule: Q04DX002 (ip), vehicle: saline 100 % of control | dose: 200.0 mg/kg/injection, schedule: Q04DX002 (ip), vehicle: saline 123 % of control

CCSC1C(O)C(C(O)CO)OC1n1ccc(=O)[nH]c1=O (configuration not stated)
inactive: dose: 100.0 mg/kg/injection, schedule: Q01DX005 (ip), vehicle: saline 96 % of control | dose: 200.0 mg/kg/injection, schedule: Q01DX005 (ip), vehicle: saline 98 % of control

COc1cc([N+](=O)[O-])ccc1NC(=O)Nc1ccc(Cl)cc1[N+](=O)[O-]
inactive: [8] 100 % of control | [9] 95 % of control | [10] 90 % of control

c1ccc(COB(OCc2ccccc2)OCc2ccccc2)cc1
inactive: dose: 100.0 mg/kg/injection, schedule: Q01DX009 (ip), vehicle: saline 110 % of control | [11] 105 % of control | dose: 200.0 mg/kg/injection, schedule: Q01DX009 (ip), vehicle: saline 104 % of control | [12] 102 % of control | dose: 400.0 mg/kg/injection, schedule: Q01DX009 (ip), vehicle: saline 96 % of control | [13] 96 % of control

CC(=O)Nc1cc([N+](=O)[O-])ccc1CC(O)c1ccccc1Cl (configuration not stated)
inactive: [8] 92 % of control | [14] 97 % of control | [9] 103 % of control | dose: 200.0 mg/kg/injection, schedule: Q04DX003 (ip), vehicle: Klucel (hydroxypropylcellulose) (HPC) 108 % of control | [10] 104 % of control | dose: 400.0 mg/kg/injection, schedule: Q04DX003 (ip), vehicle: Klucel (hydroxypropylcellulose) (HPC) 103 % of control

O=[N+]([O-])c1ccc(C=Nc2ccc3c(c2)C(Br)c2ccccc2-3)cc1 (configuration not stated)
inactive: dose: 100.0 mg/kg/injection, schedule: Q01DX Z (ip), vehicle: saline 91 % of control | dose: 200.0 mg/kg/injection, schedule: Q01DX Z (ip), vehicle: saline 90 % of control | dose: 400.0 mg/kg/injection, schedule: Q01DX Z (ip), vehicle: saline 95 % of control

O=C1NC2(CCCCC2)C(=O)N1CCN(CCCl)CCCl
inactive: dose: 1.3 mg/kg/injection, schedule: Q01DX009 (ip), vehicle: saline 96 % of control | dose: 2.0 mg/kg/injection, schedule: Q01DX009 (ip), vehicle: saline 107 % of control | dose: 4.1 mg/kg/injection, schedule: Q01DX009 (ip), vehicle: saline 117 % of control | dose: 6.25 mg/kg/injection, schedule: Q01DX009 (ip), vehicle: saline 119 % of control | dose: 9.3 mg/kg/injection, schedule: Q01DX009 (ip), vehicle: saline 124 % of control | dose: 16.0 mg/kg/injection, schedule: Q04DX003 (ip), vehicle: saline 122 % of control | dose: 25.0 mg/kg/injection, schedule: Q01DX009 (ip), vehicle: saline 106 % of control

Cc1ccc(S(=O)(=O)OCCN(CCOS(=O)(=O)c2ccc(C)cc2)c2ccccc2)cc1
inactive: dose: 7.5 mg/kg/injection, schedule: Q01DX015 (ip), vehicle: carboxymethylcellulose (CMC) 109 % of control | dose: 50.0 mg/kg/injection, schedule: Q01DX001 (ip), vehicle: saline 117 % of control | dose: 60.0 mg/kg/injection, schedule: Q01DX015 (ip), vehicle: carboxymethylcellulose (CMC) 122 % of control | [5] 115 % of control

CCCCCCCNC(=O)Nc1cccc(Cl)c1C
inactive: dose: 25.0 mg/kg/injection, schedule: Q04DX003 (ip), vehicle: Klucel (hydroxypropylcellulose) (HPC) 103 % of control | dose: 50.0 mg/kg/injection, schedule: Q01DX009 (ip), vehicle: Klucel (hydroxypropylcellulose) (HPC) 101 % of control | dose: 50.0 mg/kg/injection, schedule: Q04DX003 (ip), vehicle: Klucel (hydroxypropylcellulose) (HPC) 101 % of control | [8] 89 % of control | [14] 95 % of control and 101 % of control | [9] 93 % of control

Nc1ccn(Cc2cccc3ccccc23)c(=O)n1
inactive: dose: 100.0 mg/kg/injection, schedule: Q04DX003 (ip), vehicle: gum acacia 93 % of control | dose: 200.0 mg/kg/injection, schedule: Q04DX003 (ip), vehicle: gum acacia 90 % of control | dose: 400.0 mg/kg/injection, schedule: Q04DX003 (ip), vehicle: gum acacia 90 % of control

CCSCCO
inactive: [11] 92 % of control | [12] 102 % of control | [13] 100 % of control
